Data from patent publication US20080108562A1, “Treatment Of Bone Metastases By Means Of Pth Receptor Agonists” (Ferring B.V., priority 2004, published 2008).
“Also recorded” adds a separate entry of the source.

Columns and labels:
[1] = molecular target: T1, PTH receptor (Homo sapiens, UniProt Q03431); conditions: bone-related activities; relative to native 84 amino-acid hormone; cited from earlier work
T1 sequence (Q03431 27-593): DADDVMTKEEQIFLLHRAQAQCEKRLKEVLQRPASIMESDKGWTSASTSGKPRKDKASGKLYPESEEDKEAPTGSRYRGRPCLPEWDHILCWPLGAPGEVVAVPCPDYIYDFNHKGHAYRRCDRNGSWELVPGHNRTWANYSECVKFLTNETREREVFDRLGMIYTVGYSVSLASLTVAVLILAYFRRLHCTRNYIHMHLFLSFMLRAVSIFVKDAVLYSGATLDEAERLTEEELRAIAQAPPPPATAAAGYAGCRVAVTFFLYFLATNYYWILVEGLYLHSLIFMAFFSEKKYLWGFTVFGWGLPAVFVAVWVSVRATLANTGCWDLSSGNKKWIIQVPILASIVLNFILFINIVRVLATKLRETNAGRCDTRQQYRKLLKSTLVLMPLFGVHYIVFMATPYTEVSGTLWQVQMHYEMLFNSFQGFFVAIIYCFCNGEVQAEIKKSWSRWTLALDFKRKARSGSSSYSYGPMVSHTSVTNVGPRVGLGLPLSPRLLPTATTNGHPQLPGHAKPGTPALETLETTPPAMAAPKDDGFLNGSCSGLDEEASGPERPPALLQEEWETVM

[2] = tested on: adult C3H mice with murine CCL-11 (NCTC clone 2472) osteolytic sarcoma cells injected into the distal femur; experiment: Radiological analysis of bone density in animal model for metastatic bone disease; format: in vivo
Method: (§1) An animal model for metastatic bone disease was established in adult C3H mice with murine sarcoma cells as described in Honore, et al., Neuroscience. (2000) 98(3):585-98 (see also Clohisy, et al. J Orthop Res. (1996) 14(3):396-402). In brief, murine CCL-11 (NCTC clone 2472) osteolytic sarcoma cells were injected into the distal femur. The injection site was closed with dental grade amalgam. Wounds were closed with wound clips. Wound clips were removed at day 6 to prevent interference with behavioral testing. Sham-injected and sarcoma-injected mice received daily subcutaneous injections of either 10 μl/kg vehicle or 10 μl/kg vehicle containing PTH (1-34) at 80 μg/ml concentration beginning after testing and radiographs were taken 6 d after injection of sarcoma cells. Treatment with PTH (1-34) or vehicle ended 14 d after injection, when final behavioral testing was done and the animals sacrificed.
[…] Mice were lightly anesthetized to prevent movement during the x-ray. The radiographs of the mouse femurs were scanned at maximal resolution (2400 dpi) and saved in digital grayscale format (TIFF). The grayscale levels were standardized for all radiographs by setting the amalgam region to white (grayscale value of 255) and the lower limit of the grayscale was set to the darkest pixels of the scanned image. The grayscale values correspond to the luminosity of the scanned images.
The images were analyzed with Metamorph (Universal Imaging Corp, West Chester, Pa.). The bones were divided into 3 equal regions. Data were taken from the lower region at the site were sarcoma cells were injected. Thresholding was standardized to include all pixels with grayscale values between 2 to 76. Since grayscale values are related to luminosity, an increase in the threshold area represents an increase in darker, or lower density, bone area. The integrated intensity values for the regions were determined with Metamorph. Significant decreases in the intensity of a region indicates a significant reduction in bone density. […]

[3] = tested on: adult C3H mice with murine CCL-11 (NCTC clone 2472) osteolytic sarcoma cells injected into the distal femur; experiment: Tactile allodynia (von Frey paw withdrawal threshold) in animal model for metastatic bone disease; format: in vivo; conditions: metastatic bone tumor animals, day 14
Method: as §1, with “Treatment with PTH (1-34) or vehicle ended 14 d after injection, when final behavioral testing was done and the animals sacrificed.” left out
Tactile allodynia was determined in the manner described by Chaplan et al. J Neurosci Methods (1994) 53(1):55-63. Paw withdrawal threshold was determined in response to probing with calibrated von Frey filaments. […] The 50% paw withdrawal threshold was determined by the non-parametric method of Dixon (Dixon, Annu Rev Pharmacol Toxicol 20:441-462, 1980). […] The 50% paw withdrawal threshold was determined as (10^[Xf+kδ])/10,000, where Xf=the value of the last von Frey filament employed, k=Dixon value for the positive/negative pattern, and δ=the mean (log) difference between stimuli. […]

[4] = tested on: adult C3H mice with murine CCL-11 (NCTC clone 2472) osteolytic sarcoma cells injected into the distal femur; experiment: Flinching and guarding behavior in animal model for metastatic bone disease; format: in vivo; conditions: metastatic bone tumor animals, day 14
Method: as §1
To assess flinching and guarding behavior, animals were placed in raised plexiglass chambers with a wire grid floor for observation of flinching and guarding of the right hindlimb. The mice were allowed to acclimate to the chamber for 20 minutes. Guarding and flinching behaviors of each mouse were measured for 2 minutes. The number of flinches were counted, and the time spent guarding the foot (the foot is lifted off of the floor) was measured.

[5] = tested on: adult C3H mice with murine CCL-11 (NCTC clone 2472) osteolytic sarcoma cells injected into the distal femur; experiment: Spontaneous limb use in animal model for metastatic bone disease; format: in vivo; conditions: metastatic bone tumor animals, day 14
Method: as §1
Spontaneous limb use was assessed as described by Luger et al (2001). The mouse was placed in an empty mouse pan and observed while walking across the pan in a continuous motion. Limping and/or guarding behavior of the right (sarcoma treated) hindlimb was rated on the following scale: 0=complete lack of use, 1=partial non-use, 2=limping and guarding, 3=limping, 4=normal walking.

[6] = tested on: rats; conditions: rat, in vivo; cited from earlier work

In the case of “PTH(1-25): carboxyl-terminal truncation of PTH(1-34) (SVSEIQLMHNLGKHLNSMERVEWLR; UniProt P01270 32-56, looked up, fragment)”, the “agonist activity of PTH fragment” value [1] is given as “essentially inactive”.
For “PTH(1-34): truncated form of parathyroid hormone, residues 1-34; PTH receptor agonist tested in the mouse model (SVSEIQLMHNLGKHLNSMERVEWLRKKLQDVHNF; listed as Homo sapiens)”, the “bone density (optical density of x-ray radiographs)” value (“bone density” below) ([2]; normal (sham-injected) animals, daily s.c. PTH(1-34), day 14) was “some bone density increase”, the “bone density” value ([2]; sarcoma bearing animals, daily s.c. from day 6, day 14) was “near normal bone density” and the “bone density” value ([2]; sarcoma bearing animals, day 17, versus normal untreated animals) was “increase in density over that of normal untreated animals”. For the same substance, the “tactile hypersensitivity (evoked pain)” value [3] was “not effected”, the “tactile hypersensitivity (evoked pain)” value ([3]; listed as PTH (1-34)) was “did not effect” and the limb guarding [4] was “ameloriated pain; also recorded: significantly reduced”. The “spontaneous pain (spontaneous flinching)” value [4] was “ameloriated pain”, the limb use [5] was “ameloriated pain” and the limb use ([5]; listed as PTH (1-34)) was “returned to near normal levels”.
In the case of teriparatide acetate, the “risk of osteosarcoma (a malignant bone tumor)” value [6] is listed as “increased risk of osteosarcoma”.
